Reference: article PMC8222254, “Self-assembly of an anion receptor with metal-dependent kinase inhibition and potent in vitro anti-cancer properties” (Nature Communications, 2021)
“And” between values parts separate entries of the source, which are not always exact repeats. Equal values may be shown once.

Experiments:
Experiment in all cases: Kinase inhibition screen, cell-free 33P ATP assay at 10 μM
Format in all cases: biochemical
[1] = target: T1, 140 purified human kinases (Homo sapiens, UniProt Q96L34)
T1 sequence (Q96L34 1-752): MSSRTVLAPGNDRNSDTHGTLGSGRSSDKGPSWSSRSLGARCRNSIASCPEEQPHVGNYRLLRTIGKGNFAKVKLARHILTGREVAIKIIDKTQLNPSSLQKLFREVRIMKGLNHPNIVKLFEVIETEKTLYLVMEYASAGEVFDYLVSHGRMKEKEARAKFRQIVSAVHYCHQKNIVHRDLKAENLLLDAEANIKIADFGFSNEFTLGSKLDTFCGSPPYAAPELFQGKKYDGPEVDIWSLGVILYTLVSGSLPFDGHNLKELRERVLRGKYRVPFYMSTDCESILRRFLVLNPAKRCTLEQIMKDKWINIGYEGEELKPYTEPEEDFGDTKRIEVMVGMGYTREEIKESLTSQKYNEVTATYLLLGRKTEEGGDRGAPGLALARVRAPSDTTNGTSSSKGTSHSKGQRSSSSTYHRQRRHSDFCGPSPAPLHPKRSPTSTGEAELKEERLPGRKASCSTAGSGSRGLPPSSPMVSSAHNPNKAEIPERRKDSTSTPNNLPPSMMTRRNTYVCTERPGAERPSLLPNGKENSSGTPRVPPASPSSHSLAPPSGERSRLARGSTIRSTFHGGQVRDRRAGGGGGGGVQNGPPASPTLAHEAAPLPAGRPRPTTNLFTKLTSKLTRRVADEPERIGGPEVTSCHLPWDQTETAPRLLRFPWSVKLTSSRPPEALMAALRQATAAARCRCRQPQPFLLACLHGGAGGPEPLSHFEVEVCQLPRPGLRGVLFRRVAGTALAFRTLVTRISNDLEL
Outline: (§1)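 Radiometric ^33P ATP cell-free format with purified enzymes; both complexes run at 10 μM in duplicate, results plotted on a kinome map via HGNC symbols.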

[2] = target: 140 purified human kinases (Homo sapiens, UniProt P54764)
140 purified human kinases (Homo sapiens, UniProt P54764), sequence (P54764 20-986): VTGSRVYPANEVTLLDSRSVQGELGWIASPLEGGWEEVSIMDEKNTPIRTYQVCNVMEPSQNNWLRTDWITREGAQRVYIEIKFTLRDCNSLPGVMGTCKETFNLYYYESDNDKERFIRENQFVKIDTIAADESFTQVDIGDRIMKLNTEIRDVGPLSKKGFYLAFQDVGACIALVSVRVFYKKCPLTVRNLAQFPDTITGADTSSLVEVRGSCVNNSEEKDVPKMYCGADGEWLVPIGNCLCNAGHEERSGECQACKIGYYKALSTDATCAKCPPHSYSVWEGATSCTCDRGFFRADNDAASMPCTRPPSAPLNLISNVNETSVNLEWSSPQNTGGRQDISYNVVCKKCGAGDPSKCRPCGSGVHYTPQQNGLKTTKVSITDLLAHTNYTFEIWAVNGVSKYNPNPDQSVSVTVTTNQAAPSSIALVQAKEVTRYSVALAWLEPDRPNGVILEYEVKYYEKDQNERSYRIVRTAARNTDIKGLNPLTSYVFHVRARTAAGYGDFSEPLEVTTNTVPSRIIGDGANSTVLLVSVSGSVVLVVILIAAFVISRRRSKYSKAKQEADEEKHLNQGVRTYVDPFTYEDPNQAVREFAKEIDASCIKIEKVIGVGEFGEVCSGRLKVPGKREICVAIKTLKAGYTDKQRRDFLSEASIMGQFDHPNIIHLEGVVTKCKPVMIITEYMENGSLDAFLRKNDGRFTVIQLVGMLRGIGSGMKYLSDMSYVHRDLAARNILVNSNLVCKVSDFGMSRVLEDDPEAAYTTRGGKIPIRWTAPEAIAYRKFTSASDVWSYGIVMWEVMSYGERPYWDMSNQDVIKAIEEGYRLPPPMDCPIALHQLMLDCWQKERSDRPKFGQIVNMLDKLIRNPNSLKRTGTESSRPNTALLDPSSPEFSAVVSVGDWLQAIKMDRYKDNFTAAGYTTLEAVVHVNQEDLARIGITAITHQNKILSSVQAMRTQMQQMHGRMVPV
Outline: as §1

[3] = target: T2, 140 purified human kinases (Homo sapiens, UniProt Q14164); conditions: IKKe
T2 sequence (Q14164 1-716): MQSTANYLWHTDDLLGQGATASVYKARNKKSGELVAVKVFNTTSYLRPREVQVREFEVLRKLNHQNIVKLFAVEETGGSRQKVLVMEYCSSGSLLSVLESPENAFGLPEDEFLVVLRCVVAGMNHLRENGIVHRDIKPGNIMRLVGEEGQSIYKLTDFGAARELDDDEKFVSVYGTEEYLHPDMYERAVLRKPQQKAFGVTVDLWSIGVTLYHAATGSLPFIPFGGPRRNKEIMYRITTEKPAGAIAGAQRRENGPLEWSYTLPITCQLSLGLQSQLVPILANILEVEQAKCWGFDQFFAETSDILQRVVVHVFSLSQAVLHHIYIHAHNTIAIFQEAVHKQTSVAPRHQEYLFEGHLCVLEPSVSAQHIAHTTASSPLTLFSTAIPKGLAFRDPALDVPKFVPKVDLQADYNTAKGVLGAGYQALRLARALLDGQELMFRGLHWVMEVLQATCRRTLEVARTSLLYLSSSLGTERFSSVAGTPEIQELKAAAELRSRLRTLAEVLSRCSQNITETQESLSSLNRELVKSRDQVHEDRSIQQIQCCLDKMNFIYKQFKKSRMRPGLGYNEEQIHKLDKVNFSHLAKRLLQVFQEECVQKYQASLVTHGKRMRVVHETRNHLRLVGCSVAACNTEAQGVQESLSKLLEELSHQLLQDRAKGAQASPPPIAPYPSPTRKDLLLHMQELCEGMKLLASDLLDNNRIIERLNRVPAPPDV
Outline: as §1

[4] = target: 140 purified human kinases (Homo sapiens, UniProt Q86Z02)
140 purified human kinases (Homo sapiens, UniProt Q86Z02), sequence (Q86Z02 whole entry): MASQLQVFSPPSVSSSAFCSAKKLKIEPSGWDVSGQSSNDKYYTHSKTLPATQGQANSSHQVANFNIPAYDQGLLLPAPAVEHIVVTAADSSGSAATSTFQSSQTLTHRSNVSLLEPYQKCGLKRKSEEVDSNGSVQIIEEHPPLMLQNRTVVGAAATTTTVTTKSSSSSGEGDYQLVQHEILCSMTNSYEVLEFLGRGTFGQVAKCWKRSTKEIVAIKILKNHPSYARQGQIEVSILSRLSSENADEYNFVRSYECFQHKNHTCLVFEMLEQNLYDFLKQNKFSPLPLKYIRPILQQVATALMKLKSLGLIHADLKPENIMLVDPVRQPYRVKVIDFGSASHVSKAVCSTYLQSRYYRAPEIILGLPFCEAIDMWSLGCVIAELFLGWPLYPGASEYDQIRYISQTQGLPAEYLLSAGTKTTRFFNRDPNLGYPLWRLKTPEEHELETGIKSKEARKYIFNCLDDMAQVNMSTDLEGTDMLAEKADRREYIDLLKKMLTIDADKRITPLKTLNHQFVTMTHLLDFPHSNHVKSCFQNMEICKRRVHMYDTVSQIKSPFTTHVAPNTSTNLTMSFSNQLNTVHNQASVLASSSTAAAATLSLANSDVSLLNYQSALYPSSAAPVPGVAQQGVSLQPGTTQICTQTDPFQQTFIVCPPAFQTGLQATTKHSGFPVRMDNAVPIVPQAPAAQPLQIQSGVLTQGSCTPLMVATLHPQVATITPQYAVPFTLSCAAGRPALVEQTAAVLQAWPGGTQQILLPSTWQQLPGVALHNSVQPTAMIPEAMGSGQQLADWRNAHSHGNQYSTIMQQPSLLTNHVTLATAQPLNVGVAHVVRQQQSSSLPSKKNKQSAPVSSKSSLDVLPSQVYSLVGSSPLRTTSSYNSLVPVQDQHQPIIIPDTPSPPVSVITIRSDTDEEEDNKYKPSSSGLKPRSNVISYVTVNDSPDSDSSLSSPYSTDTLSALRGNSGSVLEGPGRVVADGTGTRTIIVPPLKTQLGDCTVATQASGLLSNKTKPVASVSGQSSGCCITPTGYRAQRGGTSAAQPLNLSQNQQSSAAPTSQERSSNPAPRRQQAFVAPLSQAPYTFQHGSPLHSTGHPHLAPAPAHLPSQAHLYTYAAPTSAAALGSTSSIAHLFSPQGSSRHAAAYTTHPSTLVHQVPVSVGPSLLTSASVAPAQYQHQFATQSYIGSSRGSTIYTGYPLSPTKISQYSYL
Outline: as §1

[5] = target: 140 purified human kinases (Homo sapiens, UniProt Q9P0L2)
140 purified human kinases (Homo sapiens, UniProt Q9P0L2), sequence (Q9P0L2 whole entry): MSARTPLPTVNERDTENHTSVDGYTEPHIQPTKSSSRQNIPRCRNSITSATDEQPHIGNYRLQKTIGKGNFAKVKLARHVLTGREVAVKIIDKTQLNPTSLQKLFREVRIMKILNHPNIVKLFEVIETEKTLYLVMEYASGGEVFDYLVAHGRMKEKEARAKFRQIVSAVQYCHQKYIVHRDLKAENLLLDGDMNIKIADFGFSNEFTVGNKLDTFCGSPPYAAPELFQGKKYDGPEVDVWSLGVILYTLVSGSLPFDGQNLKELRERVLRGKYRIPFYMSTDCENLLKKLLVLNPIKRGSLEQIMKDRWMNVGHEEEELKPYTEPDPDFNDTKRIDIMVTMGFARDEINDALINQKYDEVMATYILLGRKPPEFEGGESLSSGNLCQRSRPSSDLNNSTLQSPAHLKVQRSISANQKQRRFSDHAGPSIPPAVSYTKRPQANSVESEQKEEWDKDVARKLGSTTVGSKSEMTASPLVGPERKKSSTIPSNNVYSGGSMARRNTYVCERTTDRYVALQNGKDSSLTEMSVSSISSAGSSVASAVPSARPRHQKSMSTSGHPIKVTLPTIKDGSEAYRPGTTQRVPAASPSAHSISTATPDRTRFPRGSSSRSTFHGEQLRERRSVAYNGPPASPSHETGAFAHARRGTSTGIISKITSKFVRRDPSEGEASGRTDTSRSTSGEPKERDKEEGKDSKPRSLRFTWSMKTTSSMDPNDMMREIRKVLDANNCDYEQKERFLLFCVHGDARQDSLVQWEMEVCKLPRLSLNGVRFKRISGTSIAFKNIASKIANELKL
Outline: as §1

[6] = target: 140 purified human kinases (Homo sapiens, UniProt Q02750)
140 purified human kinases (Homo sapiens, UniProt Q02750), sequence (Q02750 whole entry): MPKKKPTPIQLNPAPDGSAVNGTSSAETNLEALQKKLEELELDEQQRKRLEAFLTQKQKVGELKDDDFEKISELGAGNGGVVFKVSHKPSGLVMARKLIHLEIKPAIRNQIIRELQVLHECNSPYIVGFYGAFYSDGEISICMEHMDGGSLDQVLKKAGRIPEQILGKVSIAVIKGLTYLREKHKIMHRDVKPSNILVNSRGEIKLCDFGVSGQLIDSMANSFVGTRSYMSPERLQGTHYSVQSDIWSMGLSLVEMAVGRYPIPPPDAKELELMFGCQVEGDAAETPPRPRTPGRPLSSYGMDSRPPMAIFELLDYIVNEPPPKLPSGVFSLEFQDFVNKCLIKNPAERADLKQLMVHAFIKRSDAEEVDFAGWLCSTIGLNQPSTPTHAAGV
Outline: as §1

[7] = target: 140 purified human kinases (Homo sapiens, UniProt P31751); conditions: PKBb
140 purified human kinases (Homo sapiens, UniProt P31751), sequence (P31751 whole entry): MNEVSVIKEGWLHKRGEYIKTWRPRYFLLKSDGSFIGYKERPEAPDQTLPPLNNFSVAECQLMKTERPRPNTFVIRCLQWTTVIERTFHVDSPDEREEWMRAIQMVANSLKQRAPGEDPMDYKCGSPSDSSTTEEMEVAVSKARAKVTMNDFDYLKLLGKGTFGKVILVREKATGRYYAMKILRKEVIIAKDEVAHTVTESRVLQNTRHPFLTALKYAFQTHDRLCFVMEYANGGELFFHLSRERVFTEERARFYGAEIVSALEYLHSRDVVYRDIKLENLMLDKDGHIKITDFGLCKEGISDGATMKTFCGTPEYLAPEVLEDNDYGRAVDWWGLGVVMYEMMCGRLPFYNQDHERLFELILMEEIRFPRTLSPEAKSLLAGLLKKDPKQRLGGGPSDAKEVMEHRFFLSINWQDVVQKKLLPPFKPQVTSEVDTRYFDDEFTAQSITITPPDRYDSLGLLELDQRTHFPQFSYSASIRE
Outline: as §1

[Cu+2].[Cu+2].[Cu+2].c1ccc(-c2csc(NCCN(CCNc3nc(-c4ccccn4)cs3)CCNc3nc(-c4ccccn4)cs3)n2)nc1.c1ccc(-c2csc(NCCN(CCNc3nc(-c4ccccn4)cs3)CCNc3nc(-c4ccccn4)cs3)n2)nc1 [[L2Cu3]6+]
% Inhibition Run 1 ([1]; MARK4): 52.1% | % Inhibition Run 2 ([1]; MARK4): 52.2% | % Inhibition, Mean ([1]; MARK4): 52% | mean % activity ([1]; MARK4): 48% | % activity ([1]; MARK4, Run 1): 47.9% | % activity ([1]; MARK4, Run 2): 47.8% | % Inhibition Run 1 ([2]; EPH-A4): 4.5% | % Inhibition Run 2 ([2]; EPH-A4): -3.1% | % Inhibition, Mean ([2]; EPH-A4): 0.7% | mean % activity ([2]; EPH-A4): 99% | % activity ([2]; EPH-A4, Run 1): 95.5% | % activity ([2]; EPH-A4, Run 2): 103.1% | % Inhibition Run 1 [3]: 69.9% | % Inhibition Run 2 [3]: 53.3% | % Inhibition, Mean [3]: 62% | mean % activity [3]: 38% | % activity ([3]; Run 1): 30.1% | % activity ([3]; Run 2): 46.7% | % Inhibition Run 1 ([4]; HIPK1): 90.8% | % Inhibition Run 2 ([4]; HIPK1): 84.1% | % Inhibition, Mean ([4]; HIPK1): 87% | mean % activity ([4]; HIPK1): 13% | % activity ([4]; HIPK1, Run 1): 9.2% | % activity ([4]; HIPK1, Run 2): 15.9% | % Inhibition Run 1 ([5]; MARK1): 26.5% | % Inhibition Run 2 ([5]; MARK1): 16.9% | % Inhibition, Mean ([5]; MARK1): 22% | mean % activity ([5]; MARK1): 78% | % activity ([5]; MARK1, Run 1): 73.5% | % activity ([5]; MARK1, Run 2): 83.1% | % Inhibition Run 1 ([6]; MKK1): 34% | % Inhibition Run 2 ([6]; MKK1): 8.9% | % Inhibition, Mean ([6]; MKK1): 21% | mean % activity ([6]; MKK1): 79% | % activity ([6]; MKK1, Run 1): 66% | % activity ([6]; MKK1, Run 2): 91.1% | % Inhibition Run 1 [7]: 91.7% | % Inhibition Run 2 [7]: 93.5% | % Inhibition, Mean [7]: 93% | mean % activity [7]: 7.4% | % activity ([7]; Run 1): 8.3% | % activity ([7]; Run 2): 6.5% | % Activity inhibition Mean ([7]; 10 µM): 92.6% | % Activity inhibition Run 1 ([7]; 10 µM): 91.7% | % Activity inhibition Run 2 ([7]; 10 µM): 93.5% | % Activity remaining Run 1 ([7]; 10 µM): 8.30% | % Activity remaining Run 2 ([7]; 10 µM): 6.50%

CC(=O)[O-].CC(=O)[O-].CC(=O)[O-].CC(=O)[O-].CC(=O)[O-].CC(=O)[O-].[Zn+2].[Zn+2].[Zn+2].c1ccc(-c2csc(NCCN(CCNc3nc(-c4ccccn4)cs3)CCNc3nc(-c4ccccn4)cs3)n2)nc1.c1ccc(-c2csc(NCCN(CCNc3nc(-c4ccccn4)cs3)CCNc3nc(-c4ccccn4)cs3)n2)nc1 [[L2Zn3]6+]
% Inhibition, Mean ([1]; MARK4): 39% | % Inhibition, Run 1 / Run 2 ([1]; MARK4): 48% and 31% | mean % activity ([1]; MARK4): 61% | % activity ([1]; MARK4, duplicate runs): 52% and 70% | % Inhibition, Mean ([2]; EPH-A4): 27% | % Inhibition, Run 1 / Run 2 ([2]; EPH-A4): 30% and 25% | mean % activity ([2]; EPH-A4): 73% | % activity ([2]; EPH-A4, duplicate runs): 70% and 75% | % Inhibition, Mean [3]: 21% | mean % activity [3]: 79% | % activity ([3]; duplicate runs): 69% and 89% | % Inhibition, Mean ([4]; HIPK1): 14% | mean % activity ([4]; HIPK1): 86% | % activity ([4]; HIPK1, duplicate runs): 92% and 81% | % Inhibition, Mean ([5]; MARK1): 23% | % Inhibition, Run 1 / Run 2 ([5]; MARK1): 26% and 20% | mean % activity ([5]; MARK1): 77% | % activity ([5]; MARK1, duplicate runs): 74% and 80% | % Activation, Mean value ([6]; MKK1): 3% | % Inhibition, Mean ([6]; MKK1): -3% | % Inhibition, Run 1 / Run 2 ([6]; MKK1): -3% | mean % activity ([6]; MKK1): 103% | % activity ([6]; MKK1, duplicate runs): 103% | % Inhibition, Mean [7]: 65% | % Inhibition, Run 1 / Run 2 [7]: 76% and 55% | mean % activity [7]: 35% | % activity ([7]; duplicate runs): 24% and 45%
